According to patent US20120232107A1, “NON-PEPTIDE ANTAGONISTS OF GASTRIN RELEASING PEPTIDE” (The Government of the United States of America as …, priority 2003, published 2012):
Entries after “also recorded” stand apart in the source; their conditions may differ. Read-outs that look alike come from different tables or passages of the source. One block for each compound: values may come before it. Ends that are not written are not given here.

Key:
GRP [1] = target: T1, GRP (Homo sapiens, UniProt P07492); test: Ca2+ analysis for GRP in H-1299 cells; type: cell-based
T1 construct: GRP is a 27 amino acid peptide; purchased Peninsula (S. Carlos, Calif.); host or cells: synthetic peptide
T1 sequence (P07492 24-50 limits assumed): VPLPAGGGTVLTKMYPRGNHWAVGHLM
Procedure: After washing two times with TIS, 2 ml of cell suspension were placed in a Delta PTI Scan 1 spectrofluorimeter (Photon Technology International, South Brunswick, N.J.) equipped with a stir bar and water bath (37° C.). Fluorescence was measured at dual excitation wavelengths of 340 nm and 380 nm using an emission wavelength of 510 nm.

[2] = test system: Bovine retinal microvascular endothelial cells; test: Cord formation assay in Matrigel; type: cell-based; settings: 5 nM GRP alone
Procedure: Formation of tube-like structures was performed as described in Kubota et al. (1988) J. Cell Biol. 107, 1589-1598; Nam et al. (2003) Phytother. Res. 17, 107-111; and Macpherson et al. (2003) Mol Cancer Ther 2, 845-54. Briefly, a thin layer of Matrigel (Collaborative Biomedical Products, Bedford, Mass.) was allowed to polymerize at the bottom of 24-well plates. […] After an overnight incubation at 37° C., the tubular structures were photographed (3 pictures per well at 10×) and the number of knots per photographic field were counted as a measure of lattice complexity.

GRP-induced angiogenesis = test: Directed in vivo angiogenesis assay (DIVAA); parameters: species or system mice; settings: 1 nM GRP
Procedure: Analysis and quantitation of angiogenesis was done using DIVAA as previously described (Martinez et al. (2002) J Natl Cancer Inst 94, 1226-37). Briefly, 10 mm long surgical-grade silicone tubes with only one end open (angioreactors) were filled with 20 μl of matrigel alone or mixed with GRP and the small molecules at the indicated concentrations. After the matrigel solidified, the angioreactors were implanted into the dorsal flanks of athymic nude mice (NCI colony). After 11 days, the mice were injected iv with 25 mg/ml FITC-dextran (100 μl/mouse, Sigma) 20 min before removing angioreactors. Quantitation of neovascularization in the angioreactors was determined as the amount of fluorescence trapped in the implants and was measured in a HP Spectrophotometer (Perkin Elmer).

AM [3] = target: T2, AM (Homo sapiens, UniProt P35318); test: cAMP analysis for AM in Rat2 cells; type: cell-based, rat; settings: for Action on second messengers: peptide AM, cAMP induced by 100 nM AM in Rat2 cells; for Response to second messengers: peptide target AM; for variation of intracellular cAMP levels: Rat2 cells
T2 construct: AM is a 52 amino acid peptide; purchased Peninsula (S. Carlos, Calif.); host or cells: synthetic peptide
T2 sequence (P35318 95-146): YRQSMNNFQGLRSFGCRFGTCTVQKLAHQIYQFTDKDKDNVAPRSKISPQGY
Procedure: This cell line was obtained from the American Tissue Culture Collection (ATCC, Manassas, Va.) and maintained in RPMI-1640 supplemented with 10% fetal bovine serum (FBS, Invitrogen, Carlsbad, Calif.). Cells were seeded in 24-well plates at 2×10^4 cells/well and incubated at 37° C. in 5% CO2 until they reached 80% confluency. Before the assay, cells were incubated for 15 min in TIS medium (RPMI-1640 plus 10 μg/ml transferrin, 10 μg/ml insulin, and 50 nM sodium selenite) containing 1% BSA, 1 mg/ml bacitracin, and 100 μM isobutylmethylxanthine. Peptides and small molecules were applied in the same medium for 5 min at the indicated concentrations in a volume of 250 μl. The reaction was terminated by adding an equal volume of ice-cold ethanol. cAMP contents were measured using the Biotrac cAMP radioimmunoassay (Amersham Biosciences, Piscataway, N.J.), as described (Pio et al. (2001) J. Biol. Chem. 276, 12292-12300).

hypertensive SHR rats = test: Measurement of blood pressure in vivo, hypertensive SHR rats; parameters: species or system rat; settings: for decrease in blood pressure from basal levels: 20 nmols/Kg intravenous; for decrease in blood pressure from basal levels / Biological activity (blood pressure): hypertensive rats; for Biological activity (blood pressure): AM superagonists, 20 nmols/Kg iv
Procedure: (§1) AM is a potent and long-lasting vasodilator Therefore it was expected that AM antagonists would elevate blood pressure and AM superagonists would decrease it further. In consequence, suspected antagonists were analyzed in normotensive rats (10-week-old Lewis/ssncr males, SAIC, Frederick, Md.) and suspected superagonists in hypertensive animals (10-week-old SHR males, Taconic Farms, Germantown, N.Y.).
(§2) Animals were anaesthetized with 3% halothane, intubated, and maintained with 1% halothane in 70% nitrous oxide and 30% oxygen (VMS Anesthesia Machine, Matrx, Medical Inc., Orchard Park, N.Y.) at 82 strokes/min. Rectal temperature was monitored through the experiment. A PE50 catheter was placed on the right femoral artery and arterial blood pressure was recorded through a P23XL transducer (Grass Instruments, Quincy, Mass.). Peptides and small molecules were injected into the right femoral vein through another catheter. All procedures were performed under a protocol approved by the National Institutes of Health.

AM [4] = target: T2, AM; test: Surface plasmon resonance binding to immobilized AM; settings: for Binding to AM kd: kinetic dissociation constant; for kon: read-out: Binding to AM ka; for Binding to AM KA: thermodynamic association constant
Procedure: Characterization of the binding between AM and the small molecules was performed immobilizing 3 μg of AM on a CM5 sensor chip by N-hydroxysuccinimide activation, followed by covalent amino coupling of the peptide to the surface, using BIAcore 3000 (Piscataway, N.J.). The remaining free surface was blocked with 1 mM ethanolamine and the matrix washed with 0.5 M NaCl solution and then re-equilibrated with binding buffer (1:200 DMSO in PBS). Eight different dilutions of each small molecule were prepared in binding buffer with concentrations ranging from 0 to 10 μM and injected from low to high concentration. Each injection was followed by a matrix regeneration step. Mass transfer control experiments were performed by injecting the same concentration of each small molecule at different flow rates (5, 15, and 75 μl/min). The data were then fitted to several models for a kinetic analysis and the binding constants calculated. The best fittings were obtained with a simple 1:1 Langmuir model.

GRP [5] = target: T1, GRP; test: IP3 analysis for GRP in H-1299 cells; type: cell-based; settings: for Action on second messengers: peptide GRP, IP3 or Ca2+ levels induced by GRP in H1299 cells
Procedure: This cell line was obtained from ATCC and cultured as the other cell lines. The signal transduction pathway for GRP includes elevation of intracellular levels of IP3 and Ca^2+ and these were investigated as previously shown (Ryan et al. (1998) J. Biol. Chem., 273, 13613-13624). Briefly, to quantify IP3, contents cells were subcultured into 24-well plates (5×10^4 cells/well). After a 24 h incubation period at 37° C., the cells were incubated with 3 μCi/ml myo-[^3H]inositol in growth medium supplemented with 2% FBS for an additional 24 h. Incubation volumes were 500 μl of assay buffer/well containing 135 mM sodium chloride, 20 mM HEPES (pH 7.4), 2 mM calcium chloride, 1.2 mM magnesium sulfate, 1 mM EGTA, 20 mM lithium chloride, 11.1 mM glucose, and 0.05% BSA (v/v) with or without any of the molecules studied at 37° C. for 30 min. Experiments were terminated with 1 ml of ice-cold hydrochloric acid/methanol (0.1%, v/v). [^3H]IP3 was eluted off Dowex AG-1-X8 anion exchange columns with 2 ml of 1 mM ammonium formate and 100 mM formic acid. Each of the eluates was collected and mixed with 10 ml of scintillation mixture (BioSafe, Research Products International Corp, Mount Prospect, Ill.), and the radioactivity was measured in a LS 3801 β counter (Beckman, Somerset, N.J.).

[6] = test system: normotensive Lewis/ssncr rats; test: Measurement of blood pressure in vivo, normotensive Lewis/ssncr rats; parameters: species or system rat; settings: for Biological activity (blood pressure): AM antagonists, 20 nmols/Kg iv; for Biological activity: negative modulators of AM
Procedure: as §1, §2

AM [7] = target: T2, AM; test: Primary screening: interference with binding of AM to its blocking monoclonal antibody; settings: 1 μM compound
Procedure: Human synthetic AM was solid-phased into PVC 96-well plates (Fisher Scientific, Pittsburgh, Pa.) by incubating 50 μl of AM (at 1 nmols/μl) per well for 1 h. To solid-phase […] into the plates, these were previously treated with glutaraldehyde as described (Kasprzyk et al. (1988) Anal. Biochem. 174, 224-234). After discarding the coating solution, the plates were blocked with 200 μl per well of 1% bovine serum albumin (BSA) in phosphate buffer saline (PBS). After 1 h, this solution was aspirated off and 50 μl containing 1 μM of one of the compounds of the library in PBS was added per well. Immediately after, 50 μl of labeled antibody (at 2.4 μg/ml) were added on each well and the solution was allowed to react for 1 h. Following 3 thorough washes with 1% BSA in PBS to remove the unbound antibodies, peroxidase activity was developed using o-phenylenediamine dihydrochloride (Sigma) as a substrate. The reaction product was quantified with a plate reader (Spectra Rainbow, Tecan, Austria) at 450 nm. Each plate contained several internal controls including wells without any coating that are used to calculate non-specific binding; wells where no potential antagonists were added, which provided maximum binding; and wells where the unlabeled antibody (at 1.2 μg/ml) substituted the small molecule, as a positive inhibition control (FIG. 1B). […]

[8] = unit inferred, read-out: calculated KD

intracellular Ca2+ (GRP [1]; 1 nM GRP alone, H1299 cells): marked elevation
Compound: GRP: Synthetic human gastrin releasing peptide, 27 amino acid peptide hormone (VPLPAGGGTVLTKMYPRGNHWAVGHLM; ends and bridges not checked; UniProt P07492 24-50, looked up) [reference compound]
number of knots per photographic field [2]: 37±5 | angiogenic potential in vivo (GRP-induced angiogenesis): exhibits angiogenic potential in vivo

Compound: OCCCN=C1CCCCC1 [compound 128911]
Action on second messengers (AM [3]): Superagonists | Response to second messengers (AM [3]): Posit. modul. | decrease in blood pressure from basal levels (hypertensive SHR rats): 62±21 mm Hg | Biological activity (blood pressure) (hypertensive SHR rats): Reduces blood | Biological activity (hypertensive SHR rats; positive modulator of AM): Vasopressor | Binding to AM kd (AM [4]): 0.000892 s⁻¹ | kon (AM [4]): 304 M⁻¹ s⁻¹ | Binding to AM KA (AM [4]): 341000 M⁻¹ | Kd (AM [4]; [8]): 2930 nM

Action on second messengers (GRP [5]): Antagonists | Response to second messengers (GRP [5]; peptide target GRP): Neg. modul. | Ca2+ response elicited by 1 nM GRP (GRP [1]; H1299 cells pre-exposed to compound (1 min)): dramatically reduces | Binding to AM (AM [4]; immobilized AM): not to bind; also recorded: No binding
Compound: Oc1c[n+](CC[n+]2cc(O)on2)no1 [compound 54671]

Compound: CS(=O)(=O)OC1CN2CCC1CC2 (stereo not drawn) [compound 79422]
variation of intracellular cAMP levels (AM [3]; in the presence of 100 nM AM): antagonist | Action on second messengers (AM [3]): Antagonists

Compound: CCN1CCC(O)(C(C(=O)O)c2ccccc2)CC1 (stereo not drawn) [compound 16311]
variation of intracellular cAMP levels (AM [3]; in the presence of 100 nM AM): most active antagonists | Action on second messengers (AM [3]): Antagonists | Response to second messengers (AM [3]): Neg. modul. | elevation in blood pressure, difference from basal levels ([6]; 20 nmols/Kg intravenous, normotensive rats): 127±47 mm Hg | Biological activity (blood pressure) ([6]; normotensive rats): Elevates blood | Biological activity [6]: Vasodilator | Binding to AM kd (AM [4]): 1.02e-05 s⁻¹ | kon (AM [4]): 1550 M⁻¹ s⁻¹ | Binding to AM KA (AM [4]): 1.52e+08 M⁻¹ | Kd (AM [4]; [8]): 6.56 nM

Compound: c1ccc(Nn2c(CCCCCCCCc3nnc(COc4ccccc4)n3Nc3ccccc3)nnc2COc2ccccc2)cc1 [compound 697165]
competition with labeled blocking monoclonal antibody for AM-coated plate (AM [7]): successful competitors | dose dependence of cAMP elevation (AM [3]; in the presence of 100 nM AM): dose-dependent elevation of cAMP | variation of intracellular cAMP levels (AM [3]; in the presence of 100 nM AM): superagonist | Action on second messengers (AM [3]): Superagonists

Compound: CCN(CC)CCC(O)(Cc1ccccc1)C(C(=O)O)c1ccccc1 (stereo not drawn) [compound 50161]
variation of intracellular cAMP levels (AM [3]; in the presence of 100 nM AM): most active antagonists | Action on second messengers (AM [3]): Antagonists

Compound: Nn1c(CCCCCCCCc2nnc(COc3ccc4ccccc4c3O)n2N)nnc1COc1ccc2ccccc2c1O [compound 697162]
Action on second messengers (AM [3]): Superagonists

Compound: Nc1nc(=O)c2[nH]cnc2n1O [compound 145425]
Action on second messengers (AM [3]): Superagonists | decrease in blood pressure from basal levels (hypertensive SHR rats): 55±24 mm Hg | Biological activity (blood pressure) (hypertensive SHR rats): Reduces blood

Compound: OC(COc1ccccc1)CN1CCCCC1 (stereo not drawn) [compound 89435]
variation of intracellular cAMP levels (AM [3]; in the presence of 100 nM AM): most active antagonists | Action on second messengers (AM [3]): Antagonists | Response to second messengers (AM [3]): Neg. modul. | Biological activity (blood pressure) ([6]; normotensive rats): Elevates blood | Biological activity [6]: Vasodilator | Binding to AM kd (AM [4]): 0.000871 s⁻¹ | kon (AM [4]): 1020 M⁻¹ s⁻¹ | Binding to AM KA (AM [4]): 1.18e+06 M⁻¹ | Kd (AM [4]; thermodynamic dissociation constant, read-out: Binding to AM KD): 851 nM

Compound: O=NN(Cc1ccc(Cl)cc1)C(C(=O)O)c1ccccc1 (stereo not drawn) [compound 372874]
Action on second messengers (GRP [5]): Superagonist
